Tests used:
Format in all cases: cell-based
[1] = tested on: Type III protein secretion of ExoU by P. aeruginosa PA103; experiment: Tertiary assay: Type III-dependent secretion of ExoU by P. aeruginosa PA103; details: Pseudomonas aeruginosa, read-out: ExoU IC50(uM)
Source text: Tertiary assay: inhibition of Type III protein secretion of effectors from a Pseudomonas aeruginosa system. Type III protein secretion is used by P. aeruginosa to secrete several essential virulence determinants. One effector of the type III protein secretion system of P. aeruginosa PA 103 is the virulence determinants ExoU.
The amount of Type III-dependent secretion of ExoU by P. aeruginosa PA103 can be determined in a cell-based assay by quantification of the 73.9 kDa ExoU protein secreted into the extracellular medium. Such quantitation can be achieved by growing strain PA 103 in a deferrated medium in the presence of nitrilotriacetic acid (an inducer of Type III protein secretion in P. aeruginosa) and either in the presence or absence of putative inhibitors. After a prolonged growth period, the cells are sedimented and the supernatants concentrated by ammonium sulfate precipitation. The proteins in the resuspended pellets are separated by electrophoresis on SDS-polyacrylamide gels. After staining gels with Colloidal Blue™, the 73.9 kDa ExoU band is quantitated by scanning through an imager. The effects of inhibitors on the intensity of the ExoU band may be measured relative to that of untreated controls.

[2] = tested on: SPI1 type III protein secretion of SipB by S. enterica; experiment: Secondary assay: Type III-dependent protein secretion of the SipB polypeptide by S. enterica; details: Salmonella enterica, read-out: SipB IC50(uM)
Experimental: Secondary assay: Type III-dependent protein secretion of the SipB polypeptide by S. enterica. The SipB protein of S. enterica is another effector of the SPI1 type III protein secretion system from S. enterica. In this cell-based procedure, the Type III-dependent secretion of SipB from the bacterial cytoplasm to the extracellular medium was measured through its reactivity with a cognate mouse monoclonal.
Salmonella enterica cells growing either in the presence or in the absence of inhibitors are induced for the production of SipB. Following an established period of growth the cells are sedimented and the amount of SipB present in the supernatant is quantified with a scanning imager following application of immunoblot techniques. Detection may employ an anti-SipB mouse monoclonal antibody (e.g., obtained from Jorge Galan, SUNY at Stony Brook, N.Y.) followed by treatment with commercially available sheep anti-mouse polyclonal antibody conjugated with horseradish peroxidase. Thereafter the membrane is treated with a peroxidase chemiluminescent substrate and exposed to film for an appropriate exposure time. Inhibition may be measured relative to untreated controls.

[3] = tested on: SPI1 type III protein secretion of SopE'-'Bla by Salmonella enterica; experiment: Primary assay: Type III protein secretion of the chimeric SopE'-'Bla polypeptide by Salmonella enterica; details: read-out: SopE IC50(uM)
Source text: Primary assay: Type III protein secretion of the chimeric SopE′-′Bla polypeptide by Salmonella enterica. This procedure is a cell-based assay that measures the type III-dependent secretion by Salmonella enterica of a plasmid-encoded chimeric polypeptide whose synthesis can be regulated, and which is endowed with an enzymatic activity that can be monitored […] by hydrolysis of a substrate that is unable to penetrate into the bacterial cytoplasm within the time constraints of the reaction. Thus, the colorimetric reaction is not influenced by SopE′-′Bla polypeptide in the bacterial cytoplasm. Instead, it effectively measures the amount of polypeptide that has been secreted from the S. enterica cytoplasm to the extracellular medium via type III system protein secretion.
The SopE′-′Bla recombinant polypeptide consists of two functionally distinct domains spliced together. The N-terminus domain is encoded by a polynucleotide region specifying the signal for type III secretion of the SopE polypeptide of S. enterica, an effector of the SPI1 type III protein secretion system. The C-terminus domain of SopE′-′Bla consists of a 263 amino acid peptide sequence that corresponds to the TEM-1 β-lactamase expressed by plasmid pBR322 but without its N-terminal signal sequence. The TEM-1 β-lactamase part of the SopE′-′Bla chimeric polypeptide is used as a reporter enzyme. It is capable of hydrolyzing nitrocefin resulting in a product whose accumulation can be monitored by colorimetric detection. The secretion of the SopE′-′Bla chimeric polypeptide from the cytoplasm to the extracellular medium is dependent on type III protein secretion.
For this procedure, cells grown under conditions known to favor a functional SPI1 secretion system are induced for expression of the SopE′-′Bla protein and grown either in the presence or in the absence of putative inhibitors for determined time. Nitrocefin is then added to the various cultures and its hydrolysis are used for quantitation. An inhibitor of Type III protein secretion is generally a compound that reduces the signal of the enzymatic reaction by decreasing the amount of SopE′-′Bla secreted into the extracellular medium.

SMILES	IC50 [1]	IC50 [2]	IC50 [3]
Cc1cc(C(=O)NC(Cc2ccc(Cl)cc2)C(=O)O)nc(-c2ccc(-c3ccccc3)cc2)n1 (stereo not drawn) [Compound 1, 2-[(2-Biphenyl-4-yl-6-methyl-pyrimidine-4-carbonyl)amino]-3-(4-chlorophenyl)-propionic acid]	83.9 µM	4.4 µM	7.4 µM
O=C(N[C@@H](CSCc1ccccc1)C(=O)O)c1cc(N2CCCCC2)nc(-c2ccc(-c3ccccc3)cc2)n1 [Compound 3, (R)-3-Benzylsulfanyl-2-[(2-biphenyl-4-yl-6-piperidin-1-yl-pyrimidine-4-carbonyl)-amino]propionic acid]	37.6 µM	3 µM	4.1 µM
O=C(N[C@H](Cc1ccc(Cl)cc1)C(=O)O)c1cc(N2CCCCC2)nc(N2CCC(c3ccccc3)CC2)n1 [Compound 4, (R)-3-(4-Chlorophenyl)-2-{[2-(4-phenylpiperidin-1-yl)-6-piperidin-1-yl-pyrimidine-4-carbonyl]amino}propionic acid]	> 100 µM	27 µM	2 µM
CN(C)c1ccc(-c2nc(C(=O)N[C@H](Cc3ccc(Cl)cc3)C(=O)O)cc(N3CCc4ccccc4C3)n2)cc1 [Compound 6, (R)-3-(4-Chlorophenyl)-2-{[6-(3,4-dihydro-1H-isoquinolin-2-yl)-2-(4-dimethylaminophenyl)pyrimidine-4-carbonyl]amino}propionic acid]	68.4 µM	50 µM	4.5 µM
O=C(N[C@H](COCc1ccccc1)C(=O)O)c1cc(N2CCC(c3ccccc3)CC2)nc(-c2ccc(Cl)c(Cl)c2)n1 [Compound 11, (R)-3-Benzyloxy-2-{[2-(3,4-dichlorophenyl)-6-(4-phenylpiperidin-1-yl)-pyrimidine-4-carbonyl]amino}propionic acid]	92.2 µM	44.2 µM	1.4 µM
O=C(N[C@H](Cc1ccc(Cl)cc1)C(=O)O)c1cc(N2CCC(c3ccccc3)CC2)nc(-c2cccc(C(F)(F)F)c2)n1 [Compound 12, (R)-3-(4-Chlorophenyl)-2-{[6-(4-phenylpiperidin-1-yl)-2-(3-trifluoromethyl-phenyl)pyrimidine-4-carbonyl]amino}propionic acid]	> 100 µM	28.1 µM	1.4 µM
O=C(N[C@H](Cc1ccc(Cl)cc1)C(=O)O)c1cc(N2CCCc3ccccc32)nc(-c2cccc(C(F)(F)F)c2)n1 [Compound 13, (R)-3-(4-Chlorophenyl)-2-{[6-(3,4-dihydro-2H-quinolin-1-yl)-2-(3-trifluoromethyl-phenyl)pyrimidine-4-carbonyl]amino}propionic acid]	> 100 µM	19.4 µM	1.3 µM
CN(C)c1ccc(-c2nc(C(=O)N[C@H](Cc3ccc(Cl)cc3)C(=O)O)cc(N3CCC(c4ccccc4)CC3)n2)cc1 [Compound 14, (R)-3-(4-Chlorophenyl)-2-{[2-(4-dimethylaminophenyl)-6-(4-phenylpiperidin-1-yl)pyrimidine-4-carbonyl]amino}propionic acid]	> 100 µM	27.6 µM	1.8 µM
O=C(N[C@H](Cc1ccc(Cl)cc1)C(=O)O)c1cc(N2CCC(c3ccccc3)CC2)nc(-c2ccc(C(F)(F)F)cc2)n1 [Compound 15, (R)-3-(4-Chlorophenyl)-2-{[6-(4-phenylpiperidin-1-yl)-2-(4-trifluoromethylphenyl)-pyrimidine-4-carbonyl]amino}propionic acid]	68.1 µM	8.5 µM	3.6 µM
O=C(N[C@H](Cc1ccc(Cl)cc1)C(=O)O)c1cc(N2CCCc3ccccc32)nc(-c2ccc(Oc3ccccc3)cc2)n1 [Compound 16, (R)-3-(4-Chlorophenyl)-2-{[6-(3,4-dihydro-2H-quinolin-1-yl)-2-(4-phenoxy-phenyl)pyrimidine-4-carbonyl]amino}propionic acid]	62.2 µM	10.2 µM	6.2 µM
O=C(N[C@@H](CSCc1ccccc1)C(=O)O)c1cc(N2CCC(c3ccc(F)cc3)CC2)nc(-c2ccc(Cl)c(Cl)c2)n1 [Compound 17, (R)-3-Benzylsulfanyl-2-({2-(3,4-dichlorophenyl)-6-[4-(4-fluorophenyl)piperidin-1-yl]pyrimidine-4-carbonyl}amino)propionic acid]	> 100 µM	23 µM	1.6 µM
O=C(N[C@@H](CSCc1ccccc1)C(=O)O)c1cc(N2CCC(c3ccccc3)CC2)nc(-c2ccc(F)c(F)c2)n1 [Compound 18, (R)-3-Benzylsulfanyl-2-{[2-(3,4-difluorophenyl)-6-(4-phenylpiperidin-1-yl)-pyrimidine-4-carbonyl]amino}propionic acid]	46.6 µM	16.8 µM	19 µM
O=C(N[C@@H](CSCc1ccccc1)C(=O)O)c1cc(N2CCN(c3ccccc3)CC2)nc(-c2ccc(F)c(F)c2)n1 [Compound 19, (R)-3-Benzylsulfanyl-2-{[2-(3,4-difluorophenyl)-6-(4-phenyl-piperazin-1-yl)-pyrimidine-4-carbonyl]amino}propionic acid]	67.8 µM	8 µM	6.4 µM
O=C(N[C@@H](CSCc1ccccc1)C(=O)O)c1cc(N2CCC(c3ccccc3)CC2)nc(-c2ccc(C(F)(F)F)cc2)n1 [Compound 21, (R)-3-Benzylsulfanyl-2-{[6-(4-phenylpiperidin-1-yl)-2-(4-trifluoromethylphenyl)-pyrimidine-4-carbonyl]amino}propionic acid]	39 µM	24.8 µM	3.6 µM
O=C(N[C@@H](CSCc1ccccc1)C(=O)O)c1cc(N2CCC(c3ccc(F)cc3)CC2)nc(-c2ccc(C(F)(F)F)cc2)n1 [Compound 22, (R)-3-Benzylsulfanyl-2-{[6-[4-(4-fluorophenyl)piperidin-1-yl]-2-(4-trifluoromethylphenyl)pyrimidine-4-carbonyl]amino}propionic acid]	52.6 µM	> 100 µM	1.8 µM
O=C(N[C@@H](CSCc1ccccc1)C(=O)O)c1cc(N2CCN(c3ccccc3)CC2)nc(-c2ccc(C(F)(F)F)cc2)n1 [Compound 23, (R)-3-Benzylsulfanyl-2-{[6-(4-phenyl-piperazin-1-yl)-2-(4-trifluoromethylphenyl)-pyrimidine-4-carbonyl]amino}propionic acid]	73 µM	31.7 µM	3.3 µM
O=C(N[C@@H](CSCc1ccccc1)C(=O)O)c1cc(N2CCN(c3ccccc3)CC2)nc(-c2ccc(Cl)cc2)n1 [Compound 24, (R)-3-Benzylsulfanyl-2-{[2-(4-chlorophenyl)-6-(4-phenyl-piperazin-1-yl)-pyrimidine-4-carbonyl]amino}propionic acid]	46.9 µM	39.2 µM	5.45 µM
N#Cc1ccc(-c2nc(C(=O)N[C@@H](CSCc3ccccc3)C(=O)O)cc(N3CCN(c4ccccc4)CC3)n2)cc1 [Compound 25, (R)-3-Benzylsulfanyl-2-{[2-(4-cyanophenyl)-6-(4-phenyl-piperazin-1-yl)-pyrimidine-4-carbonyl]amino}propionic acid]	57.2 µM	51.9 µM	6.5 µM

— US20050282824A1, “Substituted pyrimidines as inhibitors of bacterial type III protein secretion systems” (priority 2004, published 2005)
